Source: patent publication US20240408169A1 (priority 2023, published 2024)
*1 amine or outer side, *2 acyl side, *3 side chain or, on linkers, in order; H or OH if unused. Where a SMILES comes first, the peptide text is derived from it. Bridges are numbered along the chain shown (N, C = ends). [ ]: non-standard residue; d: D form. The star is where a group is joined. X122 = CN([C@@H](Cc1cc(Cl)ccc1C1=CCN(C(=O)C(C)(C)C)CC1)C(=O)[*:2])[*:1]; X119 = CC(=O)N1C2C=C(c3ccc(F)cc3C[C@@H](C(=O)[*:2])N(C)[*:1])CC1COC2; X26 = CN([C@@H](Cc1cc(F)ccc1-c1cnn(C2CC2)c1)C(=O)[*:2])[*:1]; NMehhhLys(Me) = CN([C@@H](CCCCCCCN(C)[*:3])C(=O)[*:2])[*:1]; X180 = CN([C@@H](Cc1cc(F)ccc1-c1cnn2c1CCC2)C(=O)[*:2])[*:1]; NMe3Pal(2-OiPr,5-Cl) = CN[C@@H](Cc1cc(Cl)cnc1OC(C)C)C(=O)O; NMe3Pal(2-OcPr,5-F) = CN[C@@H](Cc1cc(F)cnc1OC1CC1)C(=O)O; NMe(hhhLys) = CN([C@@H](CCCCCCCN[*:3])C(=O)[*:2])[*:1]; Cyclobutanecarbonyl(1-CF3) = O=C(C1(C(F)(F)F)CCC1)*; cBuCO(3,3-F2-1-CF3) = O=C(C1(C(F)(F)F)CC(F)(F)C1)*; X161 = Cc1ccc(F)cc1C[C@@H](C(=O)[*:2])N(C)[*:1]; Pro(trans-4-F) = O=C(O)[C@@H]1C[C@@H](F)CN1; X27 = O=C([C@]1(C(F)(F)F)CCCCO1)*; Gly(cPr) = N[C@H](C(=O)O)C1CC1; X129 = N#CC1(C(=O)*)CCC1

Columns and labels:
OVCAR3 cells = assay: MTT proliferation assay, OVCAR3; type: cell-based; settings: 5 days compound exposure, 1:3 serial dilution starting at 10 μM;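 note: compound given as an 8- or 10-point series, one day after plating, with exposure covering roughly 3-4 cell doublings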
CyclinE1/CDK2 = biological target: T1, CyclinE1/CDK2 (Homo sapiens, UniProt P24864); assay: Fluorescence Polarization (FP) competitive binding assay, Cyclin E1/Cdk2; settings: 10 nM Cyclin E1/Cdk2, 2 nM FAM probe; average of 2-3 independent experiments; read-out: Cyclin E FP IC50;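 note: readings taken after two-hour equilibration at room temperature in HEPES buffer with NaCl, DTT, NP-40 and BSA, IC50 fitted from eight-concentration serial dilution series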
T1 construct: purchased Eurofins, discovery 14-475

CyclinB1/CDK1 = biological target: T2, CyclinB1/CDK1 (Homo sapiens, UniProt P14635); assay: Fluorescence Polarization (FP) competitive binding assay, Cyclin B1/Cdk1; settings: 10 nM Cyclin B1/Cdk1, 2 nM FAM probe; average of 2-3 independent experiments; read-out: Cyclin B FP IC50;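 note: fluorescence polarization read after equilibration at room temperature, with IC50 taken from serially diluted dose-response curves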
T2 construct: purchased Eurofins, discovery 14-450

NCI-H1048 cells = assay: MTT proliferation assay, NCI-H1048; type: cell-based; settings: 5 days compound exposure, 1:3 serial dilution starting at 10 μM;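 note: Dose-response in 96-well plates over 8 or 10 concentration points, with exposure spanning 3-4 cell doublings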
CyclinA2/CDK2 = biological target: T3, CyclinA2/CDK2 (Homo sapiens, UniProt P20248); assay: Fluorescence Polarization (FP) competitive binding assay, Cyclin A2/Cdk2; settings: 8 nM Cyclin A2/Cdk2, 2 nM FAM probe; average of 2-3 independent experiments; read-out: Cyclin A FP IC50;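 note: plates equilibrated two hours at room temperature before polarization reading, IC50 fitted from eight-concentration compound titration curves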
T3 construct: purchased CRELUX Protein Services

Row | Compound | GI50 (OVCAR3 cells) [nM] | IC50 (CyclinE1/CDK2) [nM] | IC50 (CyclinB1/CDK1) [nM] | GI50 (NCI-H1048 cells) [nM] | IC50 (CyclinA2/CDK2) [nM]
1 | CC(C)C[C@@H]1NC(=O)[C@@H](N(C)C(=O)[C@@H](NC(=O)[C@@H]2C[C@@H](F)CN2C(=O)C2(C#N)CCC2)C2CC2)CCCCCCCN(C)C(=O)[C@H](Cc2cc(F)ccc2-c2cnn(C3CC3)c2)N(C)C1=O [Example 122] (X129-[Pro(trans-4-F)][Gly(cPr)][NMehhhLys(Me)]L[X26]; lactam 3-C) | 50 | 100 | 20 | 50 | 20
2 | Cc1ccc(F)cc1C[C@H]1C(=O)N(C)CCCCCCC[C@H](N(C)C(=O)[C@@H](NC(=O)[C@@H]2C[C@@H](F)CN2C(=O)C2(C(F)(F)F)CC(F)(F)C2)C2CC2)C(=O)N[C@@H](CC(C)C)C(=O)N1C [Example 123] ({cBuCO(3,3-F2-1-CF3)}-[Pro(trans-4-F)][Gly(cPr)][NMehhhLys(Me)]L[X161]; lactam 3-C) | 20 | 120 | 20 | 20 | 30
3 | CC(=O)N1C2C=C(c3ccc(F)cc3C[C@H]3C(=O)N(C)CCCCCCC[C@H](N(C)C(=O)[C@@H](NC(=O)[C@@H]4C[C@@H](F)CN4C(=O)C4(C(F)(F)F)CC(F)(F)C4)C4CC4)C(=O)N[C@@H](CC(C)C)C(=O)N3C)CC1COC2 (stereo partly drawn) [Example 124] ({cBuCO(3,3-F2-1-CF3)}-[Pro(trans-4-F)][Gly(cPr)][NMehhhLys(Me)]L[X119]; lactam 3-C) | 20 | 540 | 20 | 20 | 20
4 | CC(C)C[C@@H]1NC(=O)[C@@H](N(C)C(=O)[C@@H](NC(=O)[C@@H]2C[C@@H](F)CN2C(=O)C2(C(F)(F)F)CC(F)(F)C2)C2CC2)CC=CCCCCNC(=O)[C@H](Cc2cc(F)cnc2OC2CC2)N(C)C1=O [Example 125] | 550 | 1140 | 20 | 490 | 1010
5 | CC(C)C[C@@H]1NC(=O)[C@@H](N(C)C(=O)[C@@H](NC(=O)[C@@H]2C[C@@H](F)CN2C(=O)C2(C(F)(F)F)CC(F)(F)C2)C2CC2)CC=CCCCCN(C)C(=O)[C@H](Cc2cc(F)cnc2OC2CC2)N(C)C1=O [Example 126] | 310 | 620 | 20 | 380 | 500
6 | CC(C)C[C@@H]1NC(=O)[C@@H](N(C)C(=O)[C@@H](NC(=O)[C@@H]2C[C@@H](F)CN2C(=O)C2(C(F)(F)F)CC(F)(F)C2)C2CC2)CCCCCCCNC(=O)[C@H](Cc2cc(F)cnc2OC2CC2)N(C)C1=O [Example 127] ({cBuCO(3,3-F2-1-CF3)}-[Pro(trans-4-F)][Gly(cPr)][NMe(hhhLys)]L[NMe3Pal(2-OcPr,5-F)]; lactam 3-C) | 30 | 230 | 20 | 30 | 80
7 | CC(C)C[C@@H]1NC(=O)[C@@H](N(C)C(=O)[C@@H](NC(=O)[C@@H]2C[C@@H](F)CN2C(=O)C2(C(F)(F)F)CC(F)(F)C2)C2CC2)CCCCCCCN(C)C(=O)[C@H](Cc2cc(F)cnc2OC2CC2)N(C)C1=O [Example 128] ({cBuCO(3,3-F2-1-CF3)}-[Pro(trans-4-F)][Gly(cPr)][NMehhhLys(Me)]L[NMe3Pal(2-OcPr,5-F)]; lactam 3-C) | 30 | 190 | 20 | 30 | 80
8 | CC(C)C[C@@H]1NC(=O)[C@@H](N(C)C(=O)[C@@H](NC(=O)[C@@H]2C[C@@H](F)CN2C(=O)C2(C(F)(F)F)CC(F)(F)C2)C2CC2)CCCCCCCNC(=O)[C@H](Cc2cc(Cl)cnc2OC(C)C)N(C)C1=O [Example 131] ({cBuCO(3,3-F2-1-CF3)}-[Pro(trans-4-F)][Gly(cPr)][NMe(hhhLys)]L[NMe3Pal(2-OiPr,5-Cl)]; lactam 3-C) | 400 | 240 | 20 | 290 | 30
9 | CC(C)C[C@@H]1NC(=O)[C@@H](N(C)C(=O)[C@@H](NC(=O)[C@@H]2C[C@@H](F)CN2C(=O)C2(C(F)(F)F)CCC2)C2CC2)CC=CCCCCNC(=O)[C@H](Cc2cc(F)cnc2OC2CC2)N(C)C1=O [Example 132] | 380 | 450 | 20 | 570 | 710
10 | CC(C)C[C@@H]1NC(=O)[C@@H](N(C)C(=O)[C@@H](NC(=O)[C@@H]2C[C@@H](F)CN2C(=O)C2(C(F)(F)F)CCC2)C2CC2)CC=CCCCCN(C)C(=O)[C@H](Cc2cc(F)cnc2OC2CC2)N(C)C1=O [Example 133] | 260 | 340 | 20 | 340 | 470
11 | CC(C)C[C@@H]1NC(=O)[C@@H](N(C)C(=O)[C@@H](NC(=O)[C@@H]2C[C@@H](F)CN2C(=O)C2(C(F)(F)F)CCC2)C2CC2)CCCCCCCNC(=O)[C@H](Cc2cc(F)cnc2OC2CC2)N(C)C1=O [Example 134] ({Cyclobutanecarbonyl(1-CF3)}-[Pro(trans-4-F)][Gly(cPr)][NMe(hhhLys)]L[NMe3Pal(2-OcPr,5-F)]; lactam 3-C) | 40 | 120 | 20 | 30 | 100
12 | CC(C)C[C@@H]1NC(=O)[C@@H](N(C)C(=O)[C@@H](NC(=O)[C@@H]2C[C@@H](F)CN2C(=O)C2(C(F)(F)F)CCC2)C2CC2)CCCCCCCN(C)C(=O)[C@H](Cc2cc(F)cnc2OC2CC2)N(C)C1=O [Example 135] ({Cyclobutanecarbonyl(1-CF3)}-[Pro(trans-4-F)][Gly(cPr)][NMehhhLys(Me)]L[NMe3Pal(2-OcPr,5-F)]; lactam 3-C) | 20 | 120 | 20 | 30 | 80
13 | CC(C)C[C@@H]1NC(=O)[C@@H](N(C)C(=O)[C@@H](NC(=O)[C@@H]2C[C@@H](F)CN2C(=O)C2(C(F)(F)F)CC(F)(F)C2)C2CC2)CCCCCCCN(C)C(=O)[C@H](Cc2cc(Cl)ccc2C2=CCN(C(=O)C(C)(C)C)CC2)N(C)C1=O [Example 144] ({cBuCO(3,3-F2-1-CF3)}-[Pro(trans-4-F)][Gly(cPr)][NMehhhLys(Me)]L[X122]; lactam 3-C) | 70 | 840 | 20 | 70 | 20
14 | CC(C)C[C@@H]1NC(=O)[C@@H](N(C)C(=O)[C@@H](NC(=O)[C@@H]2C[C@@H](F)CN2C(=O)[C@]2(C(F)(F)F)CCCCO2)C2CC2)CCCCCCCN(C)C(=O)[C@H](Cc2cc(F)ccc2-c2cnn(C3CC3)c2)N(C)C1=O [Example 146] (X27-[Pro(trans-4-F)][Gly(cPr)][NMehhhLys(Me)]L[X26]; lactam 3-C) | 20 | 100 | 20 | 20 | 30
15 | CC(C)C[C@@H]1NC(=O)[C@@H](N(C)C(=O)[C@@H](NC(=O)[C@@H]2C[C@@H](F)CN2C(=O)C2(C(F)(F)F)CC(F)(F)C2)C2CC2)CCCCCCCN(C)C(=O)[C@H](Cc2cc(F)ccc2-c2cnn3c2CCC3)N(C)C1=O [Example 148] ({cBuCO(3,3-F2-1-CF3)}-[Pro(trans-4-F)][Gly(cPr)][NMehhhLys(Me)]L[X180]; lactam 3-C) | 10 | 310 | 20 | 10 | 30
